Measurements as given in EPA's ToxValDB 9.5 (doi:10.2903/j.efsa.2010.1833).
In brackets after ≈: the same amount, converted by molar mass.

How the values were obtained:
[1] = test system: Landoltia sp.; conditions: chronic/long-term; duration: 14 days; other
[2] = test system: Tagia sp.; conditions: acute; duration: 14 days; mortality
[3] = test system: Lepomis macrochirus; conditions: acute; duration: 96 hours; mortality
[4] = test system: Coturnix japonica; conditions: acute; oral; diet; mortality
[5] = test system: Pleurozium sp.; conditions: acute; duration: 72 hours
[6] = test system: Colinus virginianus
[7] = test system: Anas platyrhynchos
[8] = test system: Folsomia candida; conditions: chronic/long-term; duration: 28 days; mortality
[9] = test system: Aleochara bilineata; conditions: chronic/long-term; duration: 77 days; reproduction
[10] = test system: Rattus norvegicus; conditions: for LD50: acute, mortality
[11] = test system: Mus musculus; conditions: acute, oral, mortality
[12] = test system: Canidae; conditions: subchronic; duration: 90 days; oral; gavage; Dog Other; body weight

CN1CSC(=S)N(C)C1 [Dazomet]
NOEC [1]: 0.306 mg/L
LC50 [2]: 6.5 mg/kg
LC50 [3]: 0.3 µg/mL (≈ 1.85 µM)
LC50 [4]: > 1220 mg/kg-day
NOEC [5]: 0.056 mg/L
LC50 ([6]; acute, oral, diet, mortality): 197 mg/kg-day
LD50 ([6]; acute, oral, mortality): > 415 mg/kg-day
NOEL ([6]; reproduction developmental): 10.6 mg/kg-day
NOEL ([7]; reproductive): 16.7 mg/kg-day
LC50 ([7]; short-term, oral, feed, mortality): > 341 mg/kg-day
LEL [8]: 485000 g/ha
LEL [9]: 485000 g/ha
LD50 ([10]; oral, F): 415 mg/kg-day
LD50 ([10]; oral, M): 596 mg/kg-day
NOAEL ([10]; chronic, duration: 2 years, oral, diet, hematological): 0.9 mg/kg-day
NOAEL ([10]; developmental, development): 3 mg/kg-day
NOAEL ([10]; reproduction developmental, reproduction): 18 mg/kg-day
NOAEL ([10]; subchronic, duration: 90 days, oral, diet, organ weight): 1.5 mg/kg-day

CN=C=S [Methyl isothiocyanate]
LD50 ([11]; F): 100 mg/kg-day
LD50 ([11]; M): 120 mg/kg-day
NOAEL [12]: 0.4 mg/kg-day
NOAEL ([10]; reproduction developmental, body weight): 3 mg/kg-day
